These results are taken from patent publication US4687864A, “5-fluoro-3-oxa-prostacyclin compounds” (G. D. Searle & Co., priority 1985, dated 1987).

In data set [1] the test system is ADP-Induced platelet aggregation. Briefly: Inhibition of ADP-induced platelet aggregation, in vitro (platelet rich plasma). The note with it: Rattus norvegicus, compound preincubated 1 minute, read-out: Results (IC50 (Molar)). It is filed as cell-based.
Description: Inhibition of ADP-Induced platelet aggregation, in vitro.
Aggregation was determined using a Payton Dual Channel Aggregation Module. A Riker-Denshi recorder was used fo recording the aggregation curves.
The addition of ADP to platelet-rich plasma induces platelet aggregation.
After the PRP fraction was removed, the remainder was spun at 900×g for 15 mins. to obtain platelet poor plasma (PPP) (1800 RPM in IEC PR 6000). The number of platelets per ml PRP is determined by counting a 50 μl aliquot of PRP in a Coutter ZBI counter and channelyzer Model C-1000.
PRP is diluted with PPP 1:2 to obtain a count of approx. 25000 on the screen or 10^9 platelets/ml PRP to evaluate the anti-aggregating agent. The module was standardized with an aliquot of PPP and that of diluted PRP.
The aggregating agent used is ADP prepared as follows:
Prostacyclin is used as the standard of antiaggregatory activity for determining the potency of compounds tested. A 10^2 M solution (to give a starting concentration of 10^-4 M when 4 μL is added to 400 μL PRP) is diluted serially to obtain solutions with final concentrations of 10^-6, 10^-7, 10^-8, 10^-9 M.
Determine the dose of ADP which on a standard curve would be on the linear portion and allow reversal of the aggregation curve.
Determine the PGI2 standard curve of percentage inhibition of aggregation. Use saline in control cuvette to compare the extent of inhibition by PGI2 are represented by the depth of the aggregation curve. Allow the PRP to preincubate for approximately one minute prior to the addition of prostacyclin and another minute with PGI2 prior to the addition of ADP.
The % inhibition is plotted against prostacyclin dose on semilog paper.
The test compound is added to PRP and preincubated for 1 minute prior to ADP administration.
The test system of data set [2] is ulcerogenic effect induced by certain non-steriodal and steroidal anti-inflammatory agents. Conditions: rats, concomitant oral administration; cited from earlier work.
The conditions of data set [3]: physiological pH; cited from earlier work.
Data set [4] relates to platelet aggregation. The note with it: background, cited from earlier work.

For orientation: IC50 means the midpoint of a concentration-inhibition curve.

As to `CCCCC[C@H](O)/C=C/[C@@H]1[C@H]2C=C(C(F)COCC(=O)OC(C)(C)C)O[C@H]2C[C@H]1O` (relative stereo) [1,1-Dimethylethyl(3aS,3aα,6aα)[2-fluoro-2-[4,5,6,6aα-tetrahyro-5β-hydroxy-4α-(3S*-hydroxy-1E-octenyl)-3aS,3aαH,-cyclopenta[b]furanyl]ethoxy]acetate], the IC50 in data set [1] was determined as 4000 nM.

Turning to `CCCCC[C@H](O)/C=C/[C@@H]1[C@H]2C/C(=C/COCC(=O)OC(C)(C)C)O[C@H]2C[C@H]1O` (relative stereo) [3-oxa prostacyclin Tert-butyl ester, 1,1-Dimethylethyl(3aS,3aα,6aα)[2-[hexahydro-5β-hydroxy-4α-(3S*-hydroxy-1E-octenyl)-2H-cyclopenta-[b]furan-2Z-ylidene]ethoxy]acetate], in data set [1], the IC50 worked out at 1000 nM.

Turning to `CCCCC[C@H](O)CC[C@H]1[C@H](O)CC(=O)[C@@H]1CCCCCCC(=O)O` [13, 14-dihydro-PGE1], the “ulcerogenic effect induced by anti-inflammatory agents” value (shortened to “ulcerogenic effect induced”) in data set [2] is “inhibited”.

As for `CCCCC[C@H](O)/C=C/[C@H]1[C@H](O)CC(=O)[C@@H]1CCCCCCC(=O)O` [PGE1], the “ulcerogenic effect induced” value in data set [2] is recorded as “inhibited”.

With `CCCCC[C@H](O)/C=C/[C@H]1[C@H](O)CC(=O)[C@@H]1C/C=C\CCCC(=O)O` [PGE2], in data set [2], the “ulcerogenic effect induced” value is “inhibited”.

For `CC/C=C\C[C@H](O)/C=C/[C@H]1[C@H](O)CC(=O)[C@@H]1C/C=C\CCCC(=O)O` [PGE3], in data set [2], the “ulcerogenic effect induced” value is “inhibited”.

In the case of `CCCCC[C@H](O)/C=C/[C@@H]1[C@H]2C/C(=C/CCCC(=O)O)O[C@H]2C[C@H]1O` [Prostacyclin, (5Z)-9-deoxy-6,9α-epoxy-Δ^5 -PGF1], the IC50 in data set [1] was determined as 6 nM. The “half period of its activity” value in data set [3] was “only about several minutes”. In data set [4], the “duration of antiplatelet aggregation effect” value is “short lived” and the hypotensive effects result is reported as “often affords unwanted hypotensive effects”. Besides, the “doses required for platelet aggregation inhibiting action and antihypertensive action” value in data set [4] (selectivity of action) is listed as “almost equal to each other”.
